Assay results as given in patent US20190209472A1, “FORMULATIONS FOR DERMAL DELIVERY OF POLYMER CONJUGATES OF INDOLOCARBAZOLE COMPOUNDS WITH REDUCED EXPOSURE” (Sienna Biopharmaceuticals, Inc., priority 2017, published 2019).

System: pruritus associated with psoriasis vulgaris
Assay: Phase 1b maximal use study: exploratory efficacy (I-NRS, PASI, IGA, BSA)
Assay type: in vivo, human
Text: Efficacy Evaluations: Change from baseline at each study visit in the I-NRS; Change from baseline at each study visit in the Psoriasis Area and Severity Index ([…]) score; PASI-75: response defined as a reduction of ≥75% from baseline at each study visit on the PASI; PASI-50: response defined as a reduction of ≥50% from baseline at each study visit on the PASI; Change from baseline at each study visit in the Investigator Global Assessment (IGA); Proportion of subjects with a ≥1-grade decrease on the IGA at each study visit; Proportion of subjects with a ≥2-grade decrease on the IGA at each study visit; and Change from baseline at each study visit in BSA affected by psoriasis.
Subject Assessments—Itch Numeric Rating Scale: The I-NRS is a 1 item daily PRO measure that the subjects use to assess pruritus severity at its worst in the 24 hours prior to the assessment based on an 11-point numeric rating scale ranging from 0 (“no itching at all”) to 10 (“worst possible itching”). The I-NRS assesses overall pruritus severity. An I-NRS score of at least 4 is required to be eligible for the study. The investigator will evaluate subject eligibility based on itch associated with PV plaques at Screening. The Baseline measurement will be collected on Study Day 1 prior to study drug administration. The change from Baseline at each study visit will be determined.
Investigator Assessments: Investigator assessments include: BSA affected by psoriasis; IGA of overall psoriasis (Apremilast (Otezla) CDER Medical Review of Celgene NDA, 2014. Accessdata.fda.gov. Accessed Aug. 8, 2017.); and PASI (Fredriksson T, Pettersson U. Severe psoriasis—oral therapy with a new retinoid. Dermatologica. 1978; 157(4):238-244.).
Body Surface Area Affected by Psoriasis: Assessment of the percentage of a subject's BSA affected by psoriasis will be made by best estimates of the investigator, using the “handprint” method where 1%=1 subject handprint. At screening and baseline this should be ≥20% of BSA. The change from baseline BSA affected by psoriasis will be determined.
Investigator Global Assessment: The IGA is a site-based clinician-reported outcome measure that assesses the overall severity of psoriasis by evaluating induration (plaque elevation), erythema, and desquamation (scaling) on a 5-point scale from 0 to 4, where 0=Clear to 4=Severe. The investigator will make this assessment to calculate the overall improvement in psoriasis (the proportion of subjects achieving a rating of “Clear” or “Almost Clear” and at least a 2-point decrease [improvement] on the 5-point scale) using the IGA. The proportion of subjects achieving at least a 1-grade and 2-grade decrease from baseline will also be calculated.
Psoriasis Area and Severity Index: The PASI score is a site-based ClinRO by which a weighted sum of erythema, scaling, and induration/thickness scores over different regions of the body is determined, using the algorithm given in Fredriksson T, Pettersson U., Dermatologica. 1978; 157(4):238-244.). Each symptom will be scored on a 5-point scale from 0 to 4, where 0=Clear and 4=Very marked. The change from Baseline in the PASI score, and the percentages of subjects who have achieved a ≥75% or ≥50% reduction from baseline (PASI-75 and PASI-50, respectively), will be determined.

## (9S, 10R, 12R)-10-(3′-mPEG2000-1′,3′-oxazolidine-2′,4′-dione)-2,3,9,10,11,12-hexahydro-9-methyl-1-oxo-9,12-epoxy-1H-diindolo[1,2,3-fg:3′,2′,1′-k,l]pyrrolo[3,4-i][1,6] benzodiazocine] [CT327]
Week 4
  IGA 1-grade, % of subjects: (30%)
  IGA 2-grade, % of subjects: (13.3%)
  NRS 3-grade, % of subjects: (60.0%)
  NRS 50, % of subjects: (46.7%)
  NRS (% change from baseline), mean: −41.35%
  PASI 50, % of subjects: (33.3%)
  PASI 75, % of subjects: (10.0%)
  PASI (change from baseline), mean: −6.44
Week 4, 0.5% SNA-120 (w/w) ointment twice daily, open label
  NRS (change from baseline), mean: −3.4
Post hoc analysis
  Subjects with at least a 4-grade improvement in the Itch Numeric Rating Scale (I-NRS): approximately 57% of subjects
